# Patent publication US6681132B1, “Sodium magnetic reasonance imaging used in diagnosing tumors and assessing response to treatment” (The Trustees of Columbia University in the City of New York, priority 1999, dated 2004)
# What was measured:
# Format in all cases: cell-based, human
# PC3 cell = assay: APO-BRDU endlabelling of DNA fragmentation, flow cytometry, PC3
# Description: At the end of the treatment period, cells are trypsinized, resuspended in media, resuspended in PBS, resuspended in iced cold methanol free formaldehyde (1% in PBS) for 15 min, resuspended in 70% ethanol and stored at −20° C. until all samples from a given experiment are ready to run (19, 23). Using a very powerful endlabelling technique (APO-BRDU, Phoenix Flow Systems, California) which gives a dynamic range of fluorescence intensities of up to 1000 fold comparing control cells to cells with advanced DNA fragmentation. Results have been confirmed using positive and negative controls provided by Phoenix Flow Systems, camptothecin treated PC3 cells, and a SNAP treated myocyte line.
# Fixed cells are labeled following kit instructions (two washes with kit buffer, overnight endlabelling, two resuspensions in a rinse buffer, exposure to fluorescent antibody and treatment with propidium iodide and RNAase. Flow cytometry is performed on a Becton/Dickenson FACStar II. Individual fluorescence intensity values for 10,000 cells are obtained for each sample.
# To specifically assay DNA fragmentation, a downstream response to apoptosis, uses of a terminal deoxynucleotidyl transferase labeling approach whereby fluorescent moieties are enzymatically attached to all DNA fragment ends. (FIG. 3a) The technique which was used, has a dynamic range of approximately ×1000 (FIG. 2). […]
# PC3 cells [1] = assay: Annexin V/FITC labeling of live (propidium iodide negative) cells, flow cytometry
# Description: Enhanced FITC fluorescence (annexin positive response; panel B) indicated reorientation of phosphatidylserine within the cell membrane. PI was added to detect dead cells, which was both PI and annexin positive, the latter response due to internal binding of an antibody to phosphatidylserine sites accessed through membrane rupture. Control cells were mostly PI and FITC negative. The percentage of live PC3 cells that were annexin positive (vertical axis) is plotted versus time (horizontal axis) for taxotere (10 nM; filled circles) and VP-16 (10 ug/ml; filled triangles). A one dimensional annexin histogram (FITC intensity) for live cells is shown for control (bottom insert) and after 24 hrs VP-16 (top insert). Flow cytometry was performed on the Becton/Dickenson FACStar II (APO-BrdU) or exCaliber flow system (Annexing) at the Columbia University Cancer Center and analyzed using CellQuest Software.
# a) Early events—reorientation of phosphatidylserine: Live cells exposed to an Annexin V/FITC conjugated antibody. Enhanced fluorescence indicates reorientation of phosphatidylserine within the cell membrane (61, 93). Propidium iodide (PI) concurrently indicates cell viability. Since trypsin cleaves the annexin binding site, for dissociating cells from explanted tumor, trypsin containing collagenase preparations were not used. Cells are dissociated by mincing the tumor with surgical scissors and passing tissue repeatedly through needles while increasing the gauge. Cells are removed from tissue culture plates using 1 mM EDTA in Ca/Mg free PBS.
# Flow cytometry was used to examine a second, presumably an earlier event in the apoptotic cascade, reorientation of phosphatidylserine within the cell membrane (FIG. 3.B.). Live cells were exposed to an annexin\V/FITC conjugated antibody. For annexin labeling, cells were cultured for 1 day, treated, then lifted off the culture plate using PBS plus EDTA and exposed to Annexin V/FITC conjugated antibody. Trypsin—which cleaves the antibody binding site—was avoided.
# PC3 cells [2] = assay: Free [Nai] with SBFI/AM in 96 well plates, fluorescent plate reader; conditions: for earliest time of increase of mean SBFI ratio ([Nai]): 10 nM taxotere or 10 μg/ml VP-16 etoposide
# Excerpt: For ion measurements (panels C & D), plates were run on a Fluoroskan II fluorescent plate reader (Titertek) using Titertek's computer Interface. Fura II loaded wells (panel D) had measured fluorescence intensities between 15,000 and 25,000 units whereby dye free wells had values ˜100 and 500. The wells with SBFI/AM loaded cells (panel C) had intensities between 4,000 and 9,000 units. Two excitation values were used for each well measurement. Ratios were derived by dividing fluorescent intensity at 345 nm excitation by that at 390 nm, both with a 508 nm mission filter. For all plates, dye free wells were examined for both control and drug treated cells, and served as background values for each wavelength. For [Cai] experiments a second means of determining background fluorescence, which gave statistically similar results, was exposure to 6 mM MnCl2 following the initial measurement. […] Backgrounds were subtracted from each cell in the protocol grouping prior to the ratio being derived. These individual well to well ratios for each protocol grouping were averaqed and used in the statistical tests which determined whether the changes in [Nai] and [Cai] following drug application were significant. Each value plotted below consisted of at least n=5 well ratios. As an additional control, we induced an acute [Cai] response in some control wells for each plate by adding thapsigargin after the initial measurement. Rapid and large [Cai] changes were detected in each case. To derive concentration values from the fluorescence readings, different, but standard approaches (26, 73), were taken with each dye. Both panels C and D show elevation of ion activity developing within 2-6 hours, and in the most part continuing for 18-24 hours.
# b. SBFI/AM—This dual excitation wavelength dye is used in a fluorescent plate scanner. With SBFI/AM, we can treat cells cultured in black (non fluorescent) 96 well plates and measure average [Nai] of the cells in each well. [Nai] is calculated using ratio method and in situ calibration—thus ionophores (monensin and gramidicidin) eliminate the transmembrane gradient so that [Nai] can be altered by changing [Nao].
# Comparison of the latency of these apoptotic markers with the ionic responses induced by taxotere and VP-16 at the same doses (10 nM and 10 ug/ml, respectively). […] Since its dual wavelength ultraviolet excitation requirement is impractical for flow cytometry, adherent cells were examined in 96 well culture plates using a fluorescent plate reader (Titertek, Fluoroskan II). […] The ratios of emission intensity at the two excitation wavelengths were calculated for each well, and the average ratio plotted for each time point (FIG. 3.C.; left vertical axis). […]
# [3] = 24 hrs, VP-16 10 μg/ml, taxotere 10 nM
compound,measurement,setting,value
"COc1cc([C@@H]2c3cc4c(cc3[C@@H](O[C@@H]3O[C@@H]5CO[C@@H](C)O[C@H]5[C@H](O)[C@H]3O)[C@H]3COC(=O)[C@H]23)OCO4)cc(OC)c1O [VP-16, etoposide]",time course of DNA fragmentation,PC3 cell,continues to develop beyond the 24-hr sample point
same,fraction of live cells (propidium iodide negative) in the annexin V positive peak,"PC3 cells [1]; 10 μg/ml, maximum response (24 hrs)",Up to ⅔
same,annexin V response,"PC3 cells [1]; 17 hrs, 10 μg/ml",apparent
same,annexin V response,PC3 cells [1]; [3],pronounced
same,standard dose relative to Kd of annexin V dose response curve,"PC3 cells [1]; Kd measured at 24 hrs, standard dose 10 μg/ml",approximately 3 ×Kd
same,earliest time of increase of mean SBFI ratio ([Nai]),PC3 cells [2],2 h
CC(=O)O[C@@]12CO[C@@H]1C[C@H](O)[C@@]1(C)C(=O)[C@H](O)C3=C(C)[C@@H](OC(=O)[C@H](O)[C@@H](NC(=O)OC(C)(C)C)c4ccccc4)C[C@@](O)([C@@H](OC(=O)c4ccccc4)[C@H]21)C3(C)C [taxotere],time course of DNA fragmentation,PC3 cell,continues to develop beyond the 24-hr sample point
same,time by which markers for apoptosis were detectable,PC3 cells [1]; 10 nMol/L in culture,≤ 24 h
same,time by which markers for apoptosis were pronounced,PC3 cells [1]; 10 nMol/L in culture,≤ 48 h
same,annexin V response,PC3 cells [1]; [3],much less pronounced
same,standard dose relative to Kd of annexin V dose response curve,"PC3 cells [1]; Kd measured at 48 hrs, standard dose 10 nM",approximately 3 ×Kd
same,annexin V response,PC3 cells [1]; higher drug concentrations (10.0 μM) or later times (e.g. 48 hrs),substantially greater
same,earliest time of increase of mean SBFI ratio ([Nai]),PC3 cells [2],2 h
same,"persistence of ionic elevations ([Nai], [Cai])",PC3 cells [2]; 10 nMol/L in tissue culture,at least 24 hrs
same,"time by which ionic elevations ([Nai], [Cai]) were significant",PC3 cells [2]; 10 nMol/L in tissue culture,≤ 6 h
